Laboratory results reported in patent US9302999B2, “Substituted triazoles as herbicides” (E. I. DU PONT DE NEMOURS AND COMPANY, priority 2012, dated 2016).

Tests used:
Oilseed Rape = test: Test C postemergence: oilseed rape; type: in vivo, Brassica napus
[1] = test system: ducksalad (Heteranthera limosa); test: Test B flooded paddy: ducksalad; type: in vivo; conditions: Flood; 125 g ai/ha; applied to paddy water at 2-leaf stage; visually evaluated after 13 to 15 days
Procedure, shortened: (§1)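 Plants were grown to the 2-leaf stage, then pots were flooded to 3 cm above the soil and compounds were applied directly into the paddy water. Water depth was held for the whole test; after 13 to 15 days in a greenhouse, injury was visually rated against untreated controls (0 = no effect, 100 = complete control).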

[2] = test system: ragweed (common ragweed, Ambrosia elation); test: Test C pre-/postemergence: ragweed; type: in vivo
Procedure, shortened: (§2)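 Preemergence on seeds in loam/sand, postemergence on 2–18 cm (1–4-leaf) plants in peat-based medium; compounds in non-phytotoxic solvent with surfactant. After 13–15 days in greenhouse, visual rating versus controls, 0 (no effect) to 100 (complete control).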

[3] = test system: wheat (Triticum aestivum); test: Test A pre-/postemergence: wheat; type: in vivo
Procedure, shortened: (§3)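 Injury is scored visually on a scale where 0 means no effect and 100 complete control, comparing treated with untreated plants after approximately ten greenhouse days. Both preemergence and postemergence applications are made at the same time.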

[4] = test system: morningglory (Ipomoea coccinea); test: Test C pre-/postemergence: morningglory; type: in vivo
Procedure, shortened: as §2

[5] = test system: pigweed (Amaranthus retroflexus); test: Test A pre-/postemergence: pigweed; type: in vivo
Procedure, shortened: as §3

[6] = test system: sedge, umbrella (small-flower umbrella sedge Cyperus difformis); test: Test B flooded paddy: sedge, umbrella; type: in vivo; conditions: Flood; 125 g ai/ha; applied to paddy water at 2-leaf stage; visually evaluated after 13 to 15 days
Procedure, shortened: as §1

corn (Zea mays) = test: Test A pre-/postemergence: corn; type: in vivo
Procedure, shortened: as §3

[7] = test system: lambsquarters (Chenopodium album); test: Test C pre-/postemergence: lambsquarters; type: in vivo
Procedure, shortened: as §2

[8] = 125 g ai/ha, scale 0 to 100, 0 no effect, 100 complete control
[9] = 250 g ai/ha, scale 0 to 100 (0 no effect, 100 complete control)
[10] = Postemergence, 31 g ai/ha, scale 0 to 100 (0 no effect, 100 complete control)
[11] = Postemergence, 62 g ai/ha, scale 0 to 100 (0 no effect, 100 complete control)
[12] = Postemergence, 125 g ai/ha, scale 0 to 100, 0 no effect, 100 complete control
[13] = Postemergence, 250 g ai/ha, scale 0 to 100 (0 no effect, 100 complete control)
[14] = Preemergence, 31 g ai/ha, scale 0 (no effect) to 100 (complete control)
[15] = Preemergence, 62 g ai/ha, scale of 0 to 100, 0 is no effect, 100 is complete control
[16] = Preemergence, 125 g ai/ha, scale 0 to 100, 0 no effect, 100 complete control
[17] = Preemergence, 250 g ai/ha, scale 0 to 100, 0 no effect, 100 complete control
[18] = Postemergence, 125 g ai/ha, 0 to 100 scale, 0 is no effect, 100 is complete control
[19] = Postemergence, 500 g ai/ha, 0 to 100 scale, 0 is no effect, 100 is complete control
[20] = Preemergence, 125 g ai/ha, 0 to 100 scale where 0 is no effect and 100 is complete control
[21] = Preemergence, 500 g ai/ha, 0 to 100 scale (0 no effect, 100 complete control)

Row | Compound | Plant response rating, Oilseed Rape (Oilseed Rape; [8]) | Plant response rating, Oilseed Rape (Oilseed Rape; [9]) | Plant response rating, Ducksalad (0 to 100 scale, 0 is no effect, 100 is complete control) [1] | Plant response rating, Ragweed [2, 10] | Plant response rating, Ragweed [2, 11] | Plant response rating, Ragweed [2, 12] | Plant response rating, Ragweed [2, 13] | Plant response rating, Wheat [3, 18] | Wheat plant response rating [3, 19] | Plant response rating, Wheat [3, 20] | Plant response rating, Wheat [3, 21] | Plant response rating, Morningglory [4, 10] | Plant response rating, Morningglory [4, 11] | Plant response rating, Morningglory [4, 12] | Plant response rating, Morningglory [4, 15] | Plant response rating, Morningglory [4, 16] | Plant response rating, Morningglory [4, 17] | Plant response rating, Pigweed [5, 18] | Pigweed plant response rating [5, 19] | Plant response rating, Pigweed [5, 20] | further results
1 | CCc1nn(-c2ccc(C(F)(F)F)c(F)c2)nc1Oc1ccnc(C(F)(F)F)c1 [Compound 183] | 25 | 50 | 65 | 65 | 80 | 90 | 95 | 30 | 40 | 30 | 60 | 98 | 98 | 100 | 45 | 70 | 95 | 100 | 100 | 100 | Plant response rating, Ragweed [2, 14]: 50; Plant response rating, Ragweed [2, 15]: 50; Plant response rating, Ragweed [2, 16]: 95; Plant response rating, Ragweed [2, 17]: 95; Plant response rating, Morningglory [4, 13]: 100; Plant response rating, Morningglory [4, 14]: 30; Plant response rating, Pigweed [5, 21]: 100; Plant response rating, Sedge, Umbrella (0 to 100 scale, 0 is no effect, 100 is complete control) [6]: 95; Plant response rating, Corn (corn (Zea mays); [18]): 20; Corn plant response rating (corn (Zea mays); [19]): 50; Plant response rating, Corn (corn (Zea mays); [20]): 20; Plant response rating, Corn (corn (Zea mays); [21]): 30; Plant response rating, Lambsquarters [7, 10]: 85; Plant response rating, Lambsquarters [7, 11]: 95; Plant response rating, Lambsquarters [7, 12]: 95; Plant response rating, Lambsquarters [7, 13]: 98; Plant response rating, Lambsquarters [7, 14]: 80; Plant response rating, Lambsquarters [7, 15]: 100; Plant response rating, Lambsquarters [7, 16]: 100; Plant response rating, Lambsquarters [7, 17]: 100
2 | CCOc1nn(-c2ccc(Cl)cc2)nc1Cc1ccnc(C(F)(F)F)c1 [Compound 188] | 90 | 95 | 90 | 65 | 75 | 85 | 85 | 70 | 70 | 30 | 50 | 70 | 100 | 100 | 60 | 85 | 100 | 100 | 100 | 100 | Plant response rating, Pigweed [5, 21]: 100; Plant response rating, Sedge, Umbrella (0 to 100 scale, 0 is no effect, 100 is complete control) [6]: 100; Plant response rating, Corn (corn (Zea mays); [18]): 40; Corn plant response rating (corn (Zea mays); [19]): 50; Plant response rating, Corn (corn (Zea mays); [20]): 10; Plant response rating, Corn (corn (Zea mays); [21]): 20; Plant response rating, Lambsquarters [7, 10]: 90; Plant response rating, Lambsquarters [7, 11]: 95; Plant response rating, Lambsquarters [7, 12]: 98; Plant response rating, Lambsquarters [7, 13]: 98; Plant response rating, Lambsquarters [7, 14]: 90; Plant response rating, Lambsquarters [7, 15]: 90; Plant response rating, Lambsquarters [7, 16]: 98; Plant response rating, Lambsquarters [7, 17]: 100
